# Test results from patent US20230089073A1 (Carmot Therapeutics, Inc., priority 2021, published 2023).
# Molecular target: T1, human GLP-1 receptor (Homo sapiens, UniProt P43220)
# T1 construct: expressed in transfected cells
# Assay: GLP-1R cAMP Assay
# Assay type: cell-based
# Details: not given
# Outline: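 Luminescent enzyme-complementation detection of cAMP, read after cell lysis and overnight incubation, with dose-response curve fitting. Stimulation lasted 30 min, using 20-point triplicate dosing on CHO cells (10,000 per well) stably overexpressing human GLP-1R.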
# T1 sequence (P43220 24-463): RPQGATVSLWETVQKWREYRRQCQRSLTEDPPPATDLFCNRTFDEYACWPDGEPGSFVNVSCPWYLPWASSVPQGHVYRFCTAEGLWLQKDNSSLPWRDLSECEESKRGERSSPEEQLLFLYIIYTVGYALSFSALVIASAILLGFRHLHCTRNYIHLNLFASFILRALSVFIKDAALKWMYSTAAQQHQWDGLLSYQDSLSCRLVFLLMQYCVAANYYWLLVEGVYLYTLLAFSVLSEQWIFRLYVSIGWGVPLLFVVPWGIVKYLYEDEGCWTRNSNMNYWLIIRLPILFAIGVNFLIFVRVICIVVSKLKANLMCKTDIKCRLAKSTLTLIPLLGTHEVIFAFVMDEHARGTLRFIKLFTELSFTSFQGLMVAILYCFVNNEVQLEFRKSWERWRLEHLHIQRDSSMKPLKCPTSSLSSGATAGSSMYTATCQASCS
row,EC50 [nM],Compound
1,< 50,C[C@H]1C[C@@H](Oc2ccnc(COc3ccc(C#N)cc3F)c2)CCN1Cc1nc2ccc(C(=O)O)cc2n1C[C@@H]1CCO1 [Compound 363]

# Same assay, conditions: cAMP accumulation in CHO cells stably overexpressing the human GLP-1 receptor; 30 min treatment; HitHunter cAMP kit; read-out: EC50
row,EC50 [nM],Compound
1,< 50,"N#Cc1cc(F)ccc1OCc1cccc(OC2CCN(Cc3nc4ccc(C(=O)O)cc4n3C[C@@H]3CCO3)CC2)c1 [Example 206, (S)-2-((4-(3-((2-Cyano-4-fluorophenoxy)methyl)phenoxy)piperidin-1-yl)methyl)-1-(oxetan-2-ylmethyl)-1H-benzo[d]imidazole-6-carboxylic acid]"
2,50 to 500,"Cc1ccc(OCc2cccc(C(=O)N3CCN(Cc4nc5ccc(C(=O)O)cc5n4C[C@@H]4CCO4)CC3)c2)c(Cl)c1 [Compound 64, 2-[(4-{3-[(2-chloro-4-methylphenoxy)methyl]benzoyl}piperazin-1-yl)methyl]-1-{[(2S)-oxetan-2-yl]methyl}-1H-1,3-benzodiazole-6-carboxylic acid]"
3,< 50,"C[C@H]1C[C@H](Oc2ccnc(COc3ccc(Cl)cc3Cl)c2)CCN1Cc1nc2ccc(C(=O)O)cc2n1C[C@@H]1CCO1 [Compound 295, 2-{[(2S,4R)-4-({2-[(2,4-dichlorophenoxy)methyl]pyridin-4-yl}oxy)-2-methylpiperidin-1-yl]methyl}-1-{[(2S)-oxetan-2-yl]methyl}-1H-1,3-benzodiazole-6-carboxylic acid]"
4,< 50,"N#Cc1cc(F)c(OCc2nccc(OC3CCN(Cc4nc5c(F)cc(C(=O)O)cc5n4C[C@@H]4CCO4)CC3)n2)cc1F [Compound 502, 2-{[4-({2-[(4-cyano-2,5-difluorophenoxy)methyl]pyrimidin-4-yl}oxy)piperidin-1-yl]methyl}-4-fluoro-1-{[(2S)-oxetan-2-yl]methyl}-1H-1,3-benzodiazole-6-carboxylic acid]"
5,> 500,"Cc1ccc(Oc2cccc(C(=O)N3CCN(Cc4nc5ccc(C(=O)O)cc5n4C[C@@H]4CCO4)CC3)c2)cc1 [Compound 5, 2-({4-[3-(4-methylphenoxy)benzoyl]piperazin-1-yl}methyl)-1-{[(2S)-oxetan-2-yl]methyl}-1H-1,3-benzodiazole-6-carboxylic acid]"
6,< 50,"N#Cc1ccc(OCc2cc(OC3CCN(Cc4nc5ccc(C(=O)O)cc5n4C[C@@H]4CCO4)CC3)ccn2)c(F)c1 [Compound 277, 2-{[4-({2-[(4-cyano-2-fluorophenoxy)methyl]pyridin-4-yl}oxy)piperidin-1-yl]methyl}-1-{[(2S)-oxetan-2-yl]methyl}-1H-1,3-benzodiazole-6-carboxylic acid]"
7,< 50,"CCn1cncc1Cn1c(CN2CCC(=Cc3ccnc(COc4ccc(Cl)cc4Cl)c3)CC2)nc2ccc(C(=O)O)cc21 [Example 155, 2-((4-((2-((2,4-Dichlorophenoxy)methyl)pyridin-4-yl)methylene)piperidin-1-yl)methyl)-1-((1-ethyl-1H-imidazol-5-yl)methyl)-1H-benzo[d]imidazole-6-carboxylic acid]"
8,> 500,"Cc1ccccc1OCc1ccc(C(=O)N2CCN(Cc3nc4ccc(C(=O)O)cc4n3C[C@@H]3CCO3)CC2)o1 [Compound 43, 2-[(4-{5-[(2-methylphenoxy)methyl]furan-2-carbonyl}piperazin-1-yl)methyl]-1-{[(2S)-oxetan-2-yl]methyl}-1H-1,3-benzodiazole-6-carboxylic acid]"
9,< 50,"N#Cc1cc(Cl)ccc1OCc1cc(OC2CCN(Cc3nc4ccc(C(=O)O)cc4n3Cc3ccno3)CC2)ccn1 [Compound 241, 2-{[4-({2-[(4-chloro-2-cyanophenoxy)methyl]pyridin-4-yl}oxy)piperidin-1-yl]methyl}-1-[(1,2-oxazol-5-yl)methyl]-1H-1,3-benzodiazole-6-carboxylic acid]"
10,< 50,"O=C(O)c1ccc2nc(CN3CCC(Oc4ccnc(COc5ccc(Cl)cc5CO)c4)CC3)n(CC3CCO3)c2c1 (stereo not drawn) [Compound 292, 2-({4-[(2-{[4-chloro-2-(hydroxymethyl)phenoxy]methyl}pyridin-4-yl)oxy]piperidin-1-yl}methyl)-1-[(oxetan-2-yl)methyl]-1H-1,3-benzodiazole-6-carboxylic acid]"
11,< 50,N#CCC1(Cn2c(CN3CCC(Oc4ccnc(COc5ccc(F)cc5Cl)n4)CC3)nc3ccc(C(=O)O)cc32)CC1 [Compound 325]
12,50 to 500,"Cc1ccc(Cc2cccc(C(=O)N3CCN(Cc4nc5ccc(C(=O)O)cc5n4C[C@@H]4CCO4)CC3)c2)c(Cl)c1 [Example 32, (S)-2-((4-(3-(2-Chloro-4-methylbenzyl)benzoyl)piperazin-1-yl)methyl)-1-(oxetan-2-ylmethyl)-1H-benzo[d]imidazole-6-carboxylic acid]"
13,50 to 500,"Cc1ccc(N(C)c2cccc(C(=O)N3CCN(Cc4nc5ccc(C(=O)O)cc5n4C[C@@H]4CCO4)CC3)n2)c(Cl)c1 [Compound 101, 2-[(4-{6-[(2-chloro-4-methylphenyl)(methyl)amino]pyridine-2-carbonyl}piperazin-1-yl)methyl]-1-{[(2S)-oxetan-2-yl]methyl}-1H-1,3-benzodiazole-6-carboxylic acid]"
14,< 50,"CCn1cncc1Cn1c(CN2CCN(C(=O)c3ccc(COc4ccc(C)cc4C)o3)CC2)nc2ccc(C(=O)O)cc21 [Compound 55, 2-[(4-{5-[(2,4-dimethylphenoxy)methyl]furan-2-carbonyl}piperazin-1-yl)methyl]-1-[(1-ethyl-1H-imidazol-5-yl)methyl]-1H-1,3-benzodiazole-6-carboxylic acid]"
15,< 50,"CCn1cncc1Cn1c(CN2CCC(Oc3cccc(COc4ccc(Cl)cc4F)c3)CC2)nc2ccc(C(=O)O)cc21 [Compound 231, 2-[(4-{3-[(4-chloro-2-fluorophenoxy)methyl]phenoxy}piperidin-1-yl)methyl]-1-[(1-ethyl-1H-imidazol-5-yl)methyl]-1H-1,3-benzodiazole-6-carboxylic acid]"
16,< 50,"N#Cc1ccc(OCc2cc(OC3CCN(Cc4nc5c(F)cc(C(=O)O)cc5n4C[C@@H]4CCO4)CC3)c(F)cn2)c(F)c1 [Compound 478, 2-{[4-({2-[(4-cyano-2-fluorophenoxy)methyl]-5-fluoropyridin-4-yl}oxy)piperidin-1-yl]methyl}-4-fluoro-1-{[(2S)-oxetan-2-yl]methyl}-1H-1,3-benzodiazole-6-carboxylic acid]"
17,< 50,"N#Cc1cc(Cl)ccc1OCc1cc(OC2CCN(Cc3nc4ccc(C(=O)O)cc4n3C[C@@H]3CCO3)CC2)ccn1 [Compound 182, 2-{[4-({2-[(4-chloro-2-cyanophenoxy)methyl]pyridin-4-yl}oxy)piperidin-1-yl]methyl}-1-{[(2S)-oxetan-2-yl]methyl}-1H-1,3-benzodiazole-6-carboxylic acid]"
18,< 50,O=C(O)c1cc(F)c2nc(CN3CCC(Oc4ccnc(COc5ccc(Cl)cc5F)n4)CC3)n(CC3(CF)CC3)c2c1 [Compound 324]
19,50 to 500,"Cc1ccc(OCc2ccc(C(=O)N3CCN(Cc4nc5ccc(C(=O)O)cc5n4C[C@@H]4CCO4)CC3)o2)c(C)c1 [Compound 41, 2-[(4-{5-[(2,4-dimethylphenoxy)methyl]furan-2-carbonyl}piperazin-1-yl)methyl]-1-{[(2S)-oxetan-2-yl]methyl}-1H-1,3-benzodiazole-6-carboxylic acid]"
20,< 50,"N#Cc1ccc(OCc2nccc(OC3CCN(Cc4nc5ccc(C(=O)O)cc5n4C[C@@H]4CCO4)CC3)n2)c(F)c1 [Example 262, (S)-2-((4-((2-((4-Cyano-2-fluorophenoxy)methyl)pyrimidin-4-yl)oxy)piperidin-1-yl)methyl)-1-(oxetan-2-ylmethyl)-1H-benzo[d]imidazole-6-carboxylic acid]"
